Source: US20120029187A1, “HALOALKYLSULFONANILIDE DERIVATIVE” (Nissan Chemical Industries, Ltd., priority 2009, published 2012)

Experiments:
Assay type in all cases: in vivo
transplanted rice = assay: Test Example 1: preemergence treatment under submerged conditions, effect on crop; settings: dose 2.52 g/a
Procedure, shortened: (§1)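 Submerged conditions, 4 cm water over alluvial soil. Weeds sown and 2.5-leaf rice transplanted; compound applied preemergence to water surface, doses in g per are. Greenhouse, 25 to 30° C., three weeks, then 0–5 mortality rating.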

giant foxtail [1] = assay: Test Example 4: herbicidal effect in foliage treatment; settings: dose 3.2 g/a, three weeks after the application
Procedure, shortened: (§2)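 Visual herbicidal scores on a graded scale were recorded three weeks after foliar application. Compounds went on as diluted emulsifiable concentrates at predetermined g/a to plants grown 14 days in a 25 to 30° C greenhouse.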

common ragweed [2] = assay: as above; settings: dose 3.2 g/a, three weeks after the application
Procedure, shortened: as §2

beadstraw [3] = assay: as above; settings: dose 3.2 g/a, three weeks after the application
Procedure, shortened: as §2

barnyardgrass [4] = assay: as above; settings: dose 3.2 g/a, three weeks after the application
Procedure, shortened: as §2

wild oat [5] = assay: as above; settings: dose 3.2 g/a, three weeks after the application
Procedure, shortened: as §2

common lambsquater [6] = assay: as above; settings: dose 3.2 g/a, three weeks after the application
Procedure, shortened: as §2

Italian ryegrass [7] = assay: as above; settings: dose 3.2 g/a, three weeks after the application
Procedure, shortened: as §2

velvetleaf [8] = assay: as above; settings: dose 3.2 g/a, three weeks after the application
Procedure, shortened: as §2

posumbu knotweed [9] = assay: as above; settings: dose 3.2 g/a, three weeks after the application
Procedure, shortened: as §2

common chickweed [10] = assay: as above; settings: dose 3.2 g/a, three weeks after the application
Procedure, shortened: as §2

water foxtail [11] = assay: as above; settings: dose 3.2 g/a, three weeks after the application
Procedure, shortened: as §2

large crabgrass [12] = assay: as above; settings: dose 3.2 g/a, three weeks after the application
Procedure, shortened: as §2

redroot pigweed [13] = assay: as above; settings: dose 3.2 g/a, three weeks after the application
Procedure, shortened: as §2

giant foxtail [14] = assay: Test Example 3: herbicidal effects in soil treatment; settings: dose 3.2 g/a
Procedure, shortened: (§3)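 Seeds were sown in sterilized diluvial soil and covered with about 1.5 cm of soil. Compounds, formulated as emulsifiable concentrates and diluted with water, were sprayed evenly over the soil surface at set doses in g/a. Herbicidal effect was scored on a rating scale three weeks later.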

common ragweed [15] = assay: as above; settings: dose 3.2 g/a
Procedure, shortened: as §3

beadstraw [16] = assay: as above; settings: dose 3.2 g/a
Procedure, shortened: as §3

barnyardgrass [17] = assay: as above; settings: dose 3.2 g/a
Procedure, shortened: as §3

wild oat [18] = assay: as above; settings: dose 3.2 g/a
Procedure, shortened: as §3

common lambsquater [19] = assay: as above; settings: dose 3.2 g/a
Procedure, shortened: as §3

Italian ryegrass [20] = assay: as above; settings: dose 3.2 g/a
Procedure, shortened: as §3

velvetleaf [21] = assay: as above; settings: dose 3.2 g/a
Procedure, shortened: as §3

posumbu knotweed [22] = assay: as above; settings: dose 3.2 g/a
Procedure, shortened: as §3

common chickweed [23] = assay: as above; settings: dose 3.2 g/a
Procedure, shortened: as §3

water foxtail [24] = assay: as above; settings: dose 3.2 g/a
Procedure, shortened: as §3

large crabgrass [25] = assay: as above; settings: dose 3.2 g/a
Procedure, shortened: as §3

redroot pigweed [26] = assay: as above; settings: dose 3.2 g/a
Procedure, shortened: as §3

barnyardgrass [27] = assay: Test Example 2: herbicidal effects during the vegetation period under submerged conditions; settings: treatment during the vegetation period under submerged conditions; dose 2.52 g/a
Procedure, shortened: (§4)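 Barnyardgrass, bulrush and ducksalad were co-sown in alluvial soil flooded to 4 cm and grown in a greenhouse at 25 to 30° C. At the 1- or 2-leaf stage, water-diluted emulsifiable concentrates went onto the water surface at set doses (g/a). Herbicidal effect was scored three weeks later on a graded scale.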

ducksalad [28] = assay: as above; settings: treatment during the vegetation period under submerged conditions; dose 2.52 g/a
Procedure, shortened: as §4

bulrush [29] = assay: as above; settings: treatment during the vegetation period under submerged conditions; dose 2.52 g/a
Procedure, shortened: as §4

barnyardgrass [30] = assay: Test Example 1: herbicidal effects in preemergence treatment under submerged conditions; settings: dose 2.52 g/a
Procedure, shortened: as §1

ducksalad [31] = assay: as above; settings: dose 2.52 g/a
Procedure, shortened: as §1

bulrush [32] = assay: as above; settings: dose 2.52 g/a
Procedure, shortened: as §1

| SMILES | a: transplanted rice, effect on crop (evaluation scale 0-5) (transplanted rice) | E: giant foxtail, herbicidal effect (giant foxtail [1]) | J: common ragweed, herbicidal effect (common ragweed [2]) | O: beadstraw, herbicidal effect (beadstraw [3]) | A: barnyardgrass, herbicidal effect (barnyardgrass [4]) | F: wild oat, herbicidal effect (wild oat [5]) | L: common lambsquater, herbicidal effect (common lambsquater [6]) | H: Italian ryegrass, herbicidal effect (Italian ryegrass [7]) | I: velvetleaf, herbicidal effect (velvetleaf [8]) | M: posumbu knotweed, herbicidal effect (posumbu knotweed [9]) | N: common chickweed, herbicidal effect (common chickweed [10]) | G: water foxtail, herbicidal effect (water foxtail [11]) | D: large crabgrass, herbicidal effect (large crabgrass [12]) | K: redroot pigweed, herbicidal effect (redroot pigweed [13]) | herbicidal effect, E: giant foxtail (giant foxtail [14]) | herbicidal effect, J: common ragweed (common ragweed [15]) | herbicidal effect, O: beadstraw (beadstraw [16]) | herbicidal effect, A: barnyardgrass (barnyardgrass [17]) | herbicidal effect, F: wild oat (wild oat [18]) | herbicidal effect, L: common lambsquater (common lambsquater [19]) | also measured |
| --- | --- | --- | --- | --- | --- | --- | --- | --- | --- | --- | --- | --- | --- | --- | --- | --- | --- | --- | --- | --- | --- |
| CC(C)COC(=O)N(c1ccccc1CN1OCCCC1=O)S(=O)(=O)C(F)(F)F [III-15] | 2 (mortality of at least 20% and less than 40%) | 4 (mortality of at least 70% and less than 90%) | 4 (mortality of at least 70% and less than 90%) | 3 (mortality of at least 40% and less than 70%) | 5 (mortality of 90% or above (nearly complete death)) | 0 (mortality of less than 5% (almost ineffective)) | 0 (mortality of less than 5% (almost ineffective)) | 3 (mortality of at least 40% and less than 70%) | 4 (mortality of at least 70% and less than 90%) | 0 (mortality of less than 5% (almost ineffective)) | 3 (mortality of at least 40% and less than 70%) | 5 (mortality of 90% or above (nearly complete death)) | 5 (mortality of 90% or above (nearly complete death)) | 2 (mortality of at least 20% and less than 40%) | 5 (mortality of 90% or above (nearly complete death)) | 3 (mortality of at least 40% and less than 70%) | 0 (mortality of less than 5% (almost ineffective)) | 5 (mortality of 90% or above (nearly complete death)) | 0 (mortality of less than 5% (almost ineffective)) | 0 (mortality of less than 5% (almost ineffective)) | herbicidal effect, H: Italian ryegrass (Italian ryegrass [20]): 3 (mortality of at least 40% and less than 70%); herbicidal effect, I: velvetleaf (velvetleaf [21]): 4 (mortality of at least 70% and less than 90%); herbicidal effect, M: posumbu knotweed (posumbu knotweed [22]): 0 (mortality of less than 5% (almost ineffective)); herbicidal effect, N: common chickweed (common chickweed [23]): 4 (mortality of at least 70% and less than 90%); herbicidal effect, G: water foxtail (water foxtail [24]): 5 (mortality of 90% or above (nearly complete death)); herbicidal effect, D: large crabgrass (large crabgrass [25]): 5 (mortality of 90% or above (nearly complete death)); herbicidal effect, K: redroot pigweed (redroot pigweed [26]): 2 (mortality of at least 20% and less than 40%); A: barnyardgrass, herbicidal effect (evaluation scale 0-5) (barnyardgrass [27]): 5 (mortality of 90% or above (nearly complete death)); C: ducksalad, herbicidal effect (evaluation scale 0-5) (ducksalad [28]): 5 (mortality of 90% or above (nearly complete death)); B: bulrush, herbicidal effect (evaluation scale 0-5) (bulrush [29]): 5 (mortality of 90% or above (nearly complete death)); A: barnyardgrass, herbicidal effect (evaluation scale 0-5) (barnyardgrass [30]): 5 (mortality of 90% or above (nearly complete death)); C: ducksalad, herbicidal effect (evaluation scale 0-5) (ducksalad [31]): 5 (mortality of 90% or above (nearly complete death)); B: bulrush, herbicidal effect (evaluation scale 0-5) (bulrush [32]): 5 (mortality of 90% or above (nearly complete death)) |
| CC(C)COC(=O)N(c1ccccc1CN1COCN(C)C1=O)S(=O)(=O)C(F)(F)F [IV-4] | 0 (mortality of less than 5% (almost ineffective)) | 3 (mortality of at least 40% and less than 70%) | 0 (mortality of less than 5% (almost ineffective)) | 0 (mortality of less than 5% (almost ineffective)) | 4 (mortality of at least 70% and less than 90%) | 0 (mortality of less than 5% (almost ineffective)) | 0 (mortality of less than 5% (almost ineffective)) | 1 (mortality of at least 5% and less than 20%) | 3 (mortality of at least 40% and less than 70%) | 0 (mortality of less than 5% (almost ineffective)) | 3 (mortality of at least 40% and less than 70%) | 4 (mortality of at least 70% and less than 90%) | 3 (mortality of at least 40% and less than 70%) | 0 (mortality of less than 5% (almost ineffective)) | 3 (mortality of at least 40% and less than 70%) | 0 (mortality of less than 5% (almost ineffective)) | 0 (mortality of less than 5% (almost ineffective)) | 4 (mortality of at least 70% and less than 90%) | 0 (mortality of less than 5% (almost ineffective)) | 0 (mortality of less than 5% (almost ineffective)) | herbicidal effect, H: Italian ryegrass (Italian ryegrass [20]): 0 (mortality of less than 5% (almost ineffective)); herbicidal effect, I: velvetleaf (velvetleaf [21]): 0 (mortality of less than 5% (almost ineffective)); herbicidal effect, M: posumbu knotweed (posumbu knotweed [22]): 0 (mortality of less than 5% (almost ineffective)); herbicidal effect, N: common chickweed (common chickweed [23]): 0 (mortality of less than 5% (almost ineffective)); herbicidal effect, G: water foxtail (water foxtail [24]): 4 (mortality of at least 70% and less than 90%); herbicidal effect, D: large crabgrass (large crabgrass [25]): 4 (mortality of at least 70% and less than 90%); herbicidal effect, K: redroot pigweed (redroot pigweed [26]): 0 (mortality of less than 5% (almost ineffective)); A: barnyardgrass, herbicidal effect (evaluation scale 0-5) (barnyardgrass [27]): 5 (mortality of 90% or above (nearly complete death)); C: ducksalad, herbicidal effect (evaluation scale 0-5) (ducksalad [28]): 5 (mortality of 90% or above (nearly complete death)); B: bulrush, herbicidal effect (evaluation scale 0-5) (bulrush [29]): 5 (mortality of 90% or above (nearly complete death)); A: barnyardgrass, herbicidal effect (evaluation scale 0-5) (barnyardgrass [30]): 5 (mortality of 90% or above (nearly complete death)); C: ducksalad, herbicidal effect (evaluation scale 0-5) (ducksalad [31]): 4 (mortality of at least 70% and less than 90%); B: bulrush, herbicidal effect (evaluation scale 0-5) (bulrush [32]): 5 (mortality of 90% or above (nearly complete death)) |
